Assay results published in ChEMBL document CHEMBL1151438, “In vitro resistance study of rupintrivir, a novel inhibitor of human rhinovirus 3C protease” (Antimicrob Agents Chemother, 2007).

Legend:
[1] = tested on: rhinovirus A2; assay: Ratio of EC50 for HRV2 with 3C protease N165T mutation infected in human H1-HeLa cells after 5 passages for 30 days to EC50 for wild type HRV2 infected in human H1-HeLa cells; assay type: functional
[2] = tested on: rhinovirus B14; assay: Ratio of EC50 for HRV14 with 3C protease with T129A, T131T/A, T143P mutation infected in human H1-HeLa cells after 5 passages for 22 days to EC50 for wild type HRV14 infected in human H1-HeLa cells; assay type: functional
[3] = tested on: rhinovirus B14; assay: Ratio of EC50 for HRV14 infected in human H1-HeLa cells after 7 passages for 33 days to EC50 for wild type HRV14 infected in human H1-HeLa cells; assay type: functional
[4] = tested on: rhinovirus A2; assay: Ratio of EC50 for HRV2 infected in human H1-HeLa cells after 7 passages for 45 days to EC50 for wild type HRV2 infected in human H1-HeLa cells; assay type: functional
[5] = tested on: rhinovirus B14; assay: Antiviral activity against HRV14 with 3C protease T129A, T131T/A, T143P mutation infected in human H1-HeLa cells assessed as virus-induced cytopathic effect after 4 passages for 17 days by XTT assay; assay type: functional, organism-based; details: Rhinovirus B, 408 h
[6] = tested on: rhinovirus B14; assay: Antiviral activity against HRV14 with 3C protease T129A, T131T/A, T143P mutation infected in human H1-HeLa cells assessed as virus-induced cytopathic effect after 5 passages for 22 days by XTT assay; assay type: functional, organism-based; details: Rhinovirus B, 528 h
[7] = tested on: rhinovirus B14; assay: Ratio of EC50 for HRV14 with 3C protease T131A mutation infected in human H1-HeLa cells to EC50 for wild type HRV14 infected in human H1-HeLa cells; assay type: functional
[8] = tested on: rhinovirus A39; assay: Ratio of EC50 for HRV39 infected in human H1-HeLa cells after 2 passages for 12 days to EC50 for wild type HRV39 infected in human H1-HeLa cells; assay type: functional
[9] = tested on: rhinovirus A39; assay: Ratio of EC50 for HRV39 infected in human H1-HeLa cells after 6 passages for 33 days to EC50 for wild type HRV39 infected in human H1-HeLa cells; assay type: functional
[10] = tested on: rhinovirus A39; assay: Ratio of EC50 for HRV39 with 3C protease S105S/T, N130K, L136F mutation infected in human H1-HeLa cells after 9 passages for 50 days to EC50 for wild type HRV39 infected in human H1-HeLa cells; assay type: functional
[11] = tested on: Human rhinovirus sp.; assay: Ratio of EC50 for HRV Hanks infected in human H1-HeLa cells after 1 passage for 7 days to EC50 for wild type HRV Hanks infected in human H1-HeLa cells; assay type: functional
[12] = tested on: rhinovirus A2; assay: Antiviral activity against HRV2 with 3C protease E3E/G, A103A/V, N165T mutation infected in human H1-HeLa cells assessed as virus-induced cytopathic effect after 9 passages for 62 days by XTT assay; assay type: functional, organism-based; details: Rhinovirus A
[13] = tested on: rhinovirus A2; assay: Ratio of EC50 for HRV2 with 3C protease E3E/G, A103A/V, N165T mutation infected in human H1-HeLa cells after 9 passages for 62 days to EC50 for wild type HRV2 infected in human H1-HeLa cells; assay type: functional
[14] = tested on: rhinovirus B14; assay: Antiviral activity against wild type HRV14 infected in human H1-HeLa cells assessed as virus-induced cytopathic effect after 3 days by XTT assay; assay type: functional, organism-based; details: Rhinovirus B, 72 h
[15] = tested on: rhinovirus B14; assay: Ratio of EC50 for HRV14 infected in human H1-HeLa cells after 9 passages for 48 days to EC50 for wild type HRV14 infected in human H1-HeLa cells; assay type: functional
[16] = tested on: rhinovirus A2; assay: Ratio of EC50 for HRV2 infected in human H1-HeLa cells after 6 passages for 37 days to EC50 for wild type HRV2 infected in human H1-HeLa cells; assay type: functional
[17] = tested on: rhinovirus A39; assay: Ratio of EC50 for HRV39 infected in human H1-HeLa cells after 1 passage for 7 days to EC50 for wild type HRV39 infected in human H1-HeLa cells; assay type: functional
[18] = tested on: rhinovirus B14; assay: Antiviral activity against HRV14 with 3C protease A121A/V, T129A, T131A, N132S, Y139Y/H, T143P mutation infected in human H1-HeLa cells assessed as virus-induced cytopathic effect after 12 passages for 72 days by XTT assay; assay type: functional, organism-based; details: Rhinovirus B
[19] = tested on: rhinovirus A2; assay: Ratio of EC50 for HRV2 infected in human H1-HeLa cells after 2 passages for 10 days to EC50 for wild type HRV2 infected in human H1-HeLa cells; assay type: functional
[20] = tested on: rhinovirus A39; assay: Ratio of EC50 for HRV39 infected in human H1-HeLa cells after 9 passages for 50 days to EC50 for wild type HRV39 infected in human H1-HeLa cells; assay type: functional
[21] = tested on: rhinovirus B14; assay: Ratio of EC50 for HRV14 infected in human H1-HeLa cells after 10 passages for 55 days to EC50 for wild type HRV14 infected in human H1-HeLa cells; assay type: functional
[22] = tested on: rhinovirus B14; assay: Antiviral activity against HRV14 with 3C protease T143P mutation infected in human H1-HeLa cells assessed as virus-induced cytopathic effect after 3 days by XTT assay; assay type: functional, organism-based; details: Rhinovirus B, 72 h
[23] = tested on: rhinovirus B14; assay: Ratio of EC50 for HRV14 infected in human H1-HeLa cells after 8 passages for 40 days to EC50 for wild type HRV14 infected in human H1-HeLa cells; assay type: functional
[24] = tested on: rhinovirus B14; assay: Ratio of EC50 for HRV14 with 3C protease Y139H mutation infected in human H1-HeLa cells to EC50 for wild type HRV14 infected in human H1-HeLa cells; assay type: functional
[25] = tested on: rhinovirus B14; assay: Ratio of EC50 for HRV14 with 3C protease with A121A/V, T129A, T131A, N132S, Y139Y/H, T143P mutation infected in human H1-HeLa cells after 12 passages for 72 days to EC50 for wild type HRV14 infected in human H1-HeLa cells; assay type: functional
[26] = tested on: rhinovirus B14; assay: Ratio of EC50 for HRV14 infected in human H1-HeLa cells after 6 passages for 27 days to EC50 for wild type HRV14 infected in human H1-HeLa cells; assay type: functional
[27] = tested on: rhinovirus A39; assay: Ratio of EC50 for HRV39 with 3C protease […], L136/F mutation infected in human H1-HeLa cells after 5 passages for 29 days to EC50 for wild type HRV39 infected in human H1-HeLa cells; assay type: functional
[28] = tested on: rhinovirus B14; assay: Ratio of EC50 for HRV14 with 3C protease T143P mutation infected in human H1-HeLa cells to EC50 for wild type HRV14 infected in human H1-HeLa cells; assay type: functional
[29] = tested on: Human rhinovirus sp.; assay: Ratio of EC50 for HRV Hanks infected in human H1-HeLa cells after 2 passage for 17 days to EC50 for wild type HRV Hanks infected in human H1-HeLa cells; assay type: functional
[30] = tested on: rhinovirus A39; assay: Ratio of EC50 for HRV39 infected in human H1-HeLa cells after 3 passages for 14 days to EC50 for wild type HRV39 infected in human H1-HeLa cells; assay type: functional
[31] = tested on: rhinovirus B14; assay: Ratio of EC50 for HRV14 infected in human H1-HeLa cells after 4 passages for 17 days to EC50 for wild type HRV14 infected in human H1-HeLa cells; assay type: functional
[32] = tested on: rhinovirus B14; assay: Ratio of EC50 for HRV14 infected in human H1-HeLa cells after 12 passages for 72 days to EC50 for wild type HRV14 infected in human H1-HeLa cells; assay type: functional

## CCOC(=O)/C=C/[C@H](C[C@@H]1CCNC1=O)NC(=O)[C@@H](CC(=O)[C@@H](NC(=O)c1cc(C)on1)C(C)C)Cc1ccc(F)cc1 [RUPINTRIVIR]
[1]
  Ratio EC50: 2
[2]
  Ratio EC50: 5
[3]
  Ratio EC50: 30
[4]
  Ratio EC50: 5
[5]
  EC50: 227 nM
[6]
  EC50: 96 nM
[7]
  Ratio EC50: 1
[8]
  Ratio EC50: 4
[9]
  Ratio EC50: 6
[10]
  Ratio EC50: 4
[11]
  Ratio EC50: 1
[12]
  EC50: 140 nM
[13]
  Ratio EC50: 5
[14]
  EC50: 21 nM
[15]
  Ratio EC50: 60
[16]
  Ratio EC50: 5
[17]
  Ratio EC50: 3
[18]
  EC50: 414 nM
[19]
  Ratio EC50: 1
[20]
  Ratio EC50: 6
[21]
  Ratio EC50: 90
[22]
  EC50: 15 nM
[23]
  Ratio EC50: 40
[24]
  Ratio EC50: 1
[25]
  Ratio EC50: 20
[26]
  Ratio EC50: 20
[27]
  Ratio EC50: 3
[28]
  Ratio EC50: 1
[29]
  Ratio EC50: 2
[30]
  Ratio EC50: 6
[31]
  Ratio EC50: 10
[32]
  Ratio EC50: 90
